PubChem BioAssay AID1996
In brackets after ≈: the same amount, converted by molar mass.

Settings: buffer; pH 7.4; 200.0 µM

Question: With `COc1cc(-c2nnc(SCC(=O)Nc3ccc(C(=O)O)cc3)o2)cc(OC)c1OC` as the molecule, how does the solubility kinetic read?
Answer: > 66.8 µg/mL

Question: For `Fc1ccc(Nc2ccnc(C(F)(F)F)c2)cc1`, which solubility kinetic is on record?
Answer: 25.7 µg/mL (≈ 100 µM)

Question: For `CNS(=O)(=O)c1cccc(C(=O)OCC(=O)c2ccc3[nH]c(=O)[nH]c3c2)c1`, which solubility kinetic is on record?
Answer: > 58.4 µg/mL

Question: With `Cc1ccc(C(=O)NC(=S)Nc2ccc3[nH]c(=O)[nH]c3c2)c(C)c1` as the molecule, how does the solubility kinetic read?
Answer: < 0.2 µg/mL

Question: Which solubility kinetic does the source give for `COc1ccc(C(=O)OCC(=O)NC(=O)Nc2ccccc2F)c(OC)c1` here?
Answer: 2.4 µg/mL (≈ 6.38 µM)

Question: Which solubility kinetic does the source give for `O=C(CN1C(=O)c2ccc([N+](=O)[O-])cc2C1=O)NCc1ccc(C(=O)O)cc1` here?
Answer: > 57.5 µg/mL

Question: With `CC(C)(C)c1ccc(C(=O)N2CCN(c3ncccn3)CC2)cc1` as the molecule, how does the solubility kinetic read?
Answer: 9.6 µg/mL (≈ 29.6 µM)

Question: For `Cc1nc(NC(=O)CN2CCCCC2)sc1C(=O)N(C)C`, which solubility kinetic is on record?
Answer: > 46.6 µg/mL

Question: With `O=C(Cc1ccccc1)NC(Cc1ccc(Cl)cc1)C(=O)O` (stereo unspecified) as the molecule, how does the solubility kinetic read?
Answer: > 47.7 µg/mL

Question: For `Cc1cnc(N2C(=O)c3ccc([N+](=O)[O-])cc3C2=O)s1`, which solubility kinetic is on record?
Answer: 28 µg/mL (≈ 96.8 µM)

Question: For `CCN(C(=S)Nc1cccnc1)c1cccc2ccccc12`, which solubility kinetic is on record?
Answer: 39.9 µg/mL (≈ 130 µM)

Question: With `N#CCOc1ccccc1/C=C/c1nc2ccccc2c(=O)[nH]1` as the molecule, how does the solubility kinetic read?
Answer: 5 µg/mL (≈ 16.5 µM)

Question: With `O=c1[nH]c(=S)n(C2CC2)c(O)c1C=NCc1ccc(F)cc1` as the molecule, how does the solubility kinetic read?
Answer: 0.9 µg/mL (≈ 2.82 µM)

Question: Which solubility kinetic does the source give for `COc1ccc(NS(=O)(=O)c2ccc(C(=O)N3CCN(c4ccc(F)cc4)CC3)cc2)cc1` here?
Answer: 12.1 µg/mL (≈ 25.8 µM)

Question: For `Cc1cccc(OC(C)C(=O)Nc2nc(-c3ccncc3)cs2)c1` (stereo unspecified), which solubility kinetic is on record?
Answer: 3.4 µg/mL (≈ 10 µM)

Question: With `CN=C1S/C(=C\c2ccc(O)c(OC)c2)C(=O)N1C` as the molecule, how does the solubility kinetic read?
Answer: 5.9 µg/mL (≈ 21.2 µM)

Question: For `CCN(CC)c1nc(N2CCOCC2)nc2ccccc12.Cl`, which solubility kinetic is on record?
Answer: 42.8 µg/mL

Question: With `COc1ccccc1NC(=S)Nc1cccc2cnccc12` as the molecule, how does the solubility kinetic read?
Answer: 40.9 µg/mL (≈ 132 µM)

Question: For `O=C1CN=C(c2ccc(F)cc2)c2oc3ccccc3c2N1`, which solubility kinetic is on record?
Answer: 0.4 µg/mL (≈ 1.36 µM)

Question: Which solubility kinetic does the source give for `CCCCOc1ccc(C(=O)NCCc2cccs2)cc1` here?
Answer: 1.3 µg/mL (≈ 4.28 µM)

Question: For `CCOC(=O)C1CCN(C(=S)NC(=O)c2cccs2)CC1`, which solubility kinetic is on record?
Answer: > 49 µg/mL

Question: Which solubility kinetic does the source give for `CCOc1ccc(NC(=O)c2ccccc2SC)cc1` here?
Answer: 2.4 µg/mL (≈ 8.35 µM)

Question: With `Cn1c(/C=C/c2ccccc2)nc2ccccc21` as the molecule, how does the solubility kinetic read?
Answer: 21.9 µg/mL (≈ 93.5 µM)

Question: For `O=C(NC1CC1)C1CCN(S(=O)(=O)c2ccc(Cl)cc2)CC1`, which solubility kinetic is on record?
Answer: 41.7 µg/mL (≈ 122 µM)

Question: With `O=C(c1cc2cc(F)ccc2[nH]1)N1CCc2ccccc2C1` as the molecule, how does the solubility kinetic read?
Answer: 0.9 µg/mL (≈ 3.06 µM)

Question: With `Cn1cc(S(=O)(=O)NCCc2ccccc2)c(=O)n(C)c1=O` as the molecule, how does the solubility kinetic read?
Answer: > 48.5 µg/mL

Question: Which solubility kinetic does the source give for `Cc1ccccc1OC(C)C(=O)Nc1ccc2c(c1)OCO2` (stereo unspecified) here?
Answer: 38.8 µg/mL (≈ 130 µM)

Question: For `Cc1ccc(C)c(OCCC(=O)OCC(=O)NC(=O)NC2CCCCC2)c1`, which solubility kinetic is on record?
Answer: 3.9 µg/mL (≈ 10.4 µM)

Question: For `Cc1ccsc1C(=O)OCC(=O)NC1CC1`, which solubility kinetic is on record?
Answer: > 35.9 µg/mL

Question: Which solubility kinetic does the source give for `CC1CCN(CC#CCOc2ccc(Cl)cc2)CC1.O=C(O)C(=O)O` here?
Answer: 16.3 µg/mL

Question: For `CCn1cc(CN2CCN(C)C(CCO)C2)c2ccccc21` (stereo unspecified), which solubility kinetic is on record?
Answer: 45 µg/mL (≈ 149 µM)

Question: With `CCN1C(=O)CSC1=Nc1ccccc1Cl` as the molecule, how does the solubility kinetic read?
Answer: 27.9 µg/mL (≈ 110 µM)

Question: For `O=C(O)/C=C/C(=O)Nc1ccc(OC(F)(F)F)cc1Br`, which solubility kinetic is on record?
Answer: > 53.1 µg/mL

Question: Which solubility kinetic does the source give for `CCN(CC)C(=O)CN(C#N)c1nc(Cl)nc(N(C)C)n1` here?
Answer: 41.3 µg/mL (≈ 132 µM)

Question: Which solubility kinetic does the source give for `Cc1ccc(C)n1-c1ccc(C#N)cn1` here?
Answer: 26.6 µg/mL (≈ 135 µM)

Question: For `CN(C)c1ccc(-n2cccc2)cc1`, which solubility kinetic is on record?
Answer: 1.1 µg/mL (≈ 5.91 µM)

Question: For `Cc1cc(=O)cc(C)n1-c1ccc(F)cc1F`, which solubility kinetic is on record?
Answer: > 35.3 µg/mL

Question: Which solubility kinetic does the source give for `Cc1ccc(C23CC4CC(CC(C(=O)NC(C)C(=O)O)(C4)C2)C3)cc1` (stereo unspecified) here?
Answer: > 51.2 µg/mL

Question: With `CCN(C(=O)COC(=O)CCC(=O)c1cccs1)C1CCCCC1` as the molecule, how does the solubility kinetic read?
Answer: > 52.7 µg/mL

Question: With `O=C(N/N=C/c1ccccc1O)C1CCCC1` as the molecule, how does the solubility kinetic read?
Answer: > 34.8 µg/mL

Question: Which solubility kinetic does the source give for `CCCC(C)NC(=O)CSc1nc2ccc(C)cc2[nH]1` (stereo unspecified) here?
Answer: > 43.7 µg/mL

Question: For `COCC(=O)Nc1ccc(S(=O)(=O)Nc2nccs2)cc1`, which solubility kinetic is on record?
Answer: 47 µg/mL (≈ 144 µM)

Question: For `CC(C(=O)O)c1ccc(N2Cc3ccccc3C2=O)cc1` (stereo unspecified), which solubility kinetic is on record?
Answer: > 42.2 µg/mL

Question: For `CC(=O)CSc1nnc(-c2ccco2)n1-c1ccccc1`, which solubility kinetic is on record?
Answer: > 44.9 µg/mL

Question: With `Cc1cc(=O)oc2cc(NC(=O)Cc3ccccc3)ccc12` as the molecule, how does the solubility kinetic read?
Answer: 1.1 µg/mL (≈ 3.75 µM)

Question: With `COc1cc2c(cc1OC)CN(C(=O)/C=C/c1cccs1)CC2` as the molecule, how does the solubility kinetic read?
Answer: > 49.4 µg/mL

Question: For `COc1ccccc1NC(=O)COC(=O)c1oc2ccccc2c1C`, which solubility kinetic is on record?
Answer: 6 µg/mL (≈ 17.7 µM)

Question: Which solubility kinetic does the source give for `O=C(COC(=O)c1ccncc1)Nc1ccc2c(c1)OCO2` here?
Answer: > 45 µg/mL

Question: With `CC(=O)NCCC(=O)Nc1nc(-c2ccc3c(c2)OCCO3)cs1` as the molecule, how does the solubility kinetic read?
Answer: 13.6 µg/mL (≈ 39.1 µM)

Question: Which solubility kinetic does the source give for `CC1CCN(C(=O)CN(Cc2ccc(F)cc2)S(C)(=O)=O)CC1` here?
Answer: > 51.4 µg/mL

Question: For `CC(=O)N(C)c1ccc(NC(=S)NCC(C)C)cc1`, which solubility kinetic is on record?
Answer: > 41.9 µg/mL

Question: Which solubility kinetic does the source give for `CCC1CN(C(=O)NCc2ccc(F)cc2)c2cc(C)ccc2O1` (stereo unspecified) here?
Answer: 4.3 µg/mL (≈ 13.1 µM)

Question: With `COC(=O)c1sccc1NC(=O)c1c(F)c(F)c(F)c(F)c1F` as the molecule, how does the solubility kinetic read?
Answer: < 0.8 µg/mL

Question: For `N#Cc1cc([N+](=O)[O-])ccc1NC(=O)COC(=O)C1CCC(=O)N1` (stereo unspecified), which solubility kinetic is on record?
Answer: > 49.8 µg/mL

Question: Which solubility kinetic does the source give for `COC(=O)Cn1c2ccc(Cl)cc2c2nc(C)sc21` here?
Answer: 35.3 µg/mL (≈ 120 µM)

Question: With `Cc1ccc(S(=O)(=O)NC2CC2)cc1[N+](=O)[O-]` as the molecule, how does the solubility kinetic read?
Answer: > 38.4 µg/mL

Question: With `COc1ccccc1CNC(=O)COC(=O)c1ccncc1` as the molecule, how does the solubility kinetic read?
Answer: > 45 µg/mL

Question: Which solubility kinetic does the source give for `CN(C)/C=C/C(=O)c1ccc(F)cc1F` here?
Answer: > 31.7 µg/mL

Question: With `COc1ccc(C2(c3ccc(OC)cc3)NC(=O)N(CC(=O)Nc3cc(C)on3)C2=O)cc1` as the molecule, how does the solubility kinetic read?
Answer: 27.4 µg/mL (≈ 60.8 µM)

Question: With `CC(=O)N1CCN(C(=O)c2cc3ccccc3o2)CC1` as the molecule, how does the solubility kinetic read?
Answer: > 40.8 µg/mL

Question: For `Cc1cc(C)cc(NC(=O)N(C)Cc2ccccc2)c1`, which solubility kinetic is on record?
Answer: 2 µg/mL (≈ 7.45 µM)
